Data: patent publication US5608095A, “Alkyl-4-silyl-phenols and esters thereof as antiatherosclerotic agents” (Hoechst Marion Roussel, Inc., priority 1996, dated 1997)
Like-named read-outs stand apart in the source and are kept apart here.

Columns and labels:
VCAM-1 [1] = assay: Cell surface ELISA for VCAM-1 in human aortic smooth muscle cells (HASMC), interleukin-4 induced; format: cell-based; conditions: 50 μm; for VCAM-1 (Avg.) % inh.: average of HSMC-1 to HSMC-3; for HSMC-1 % inh. of VCAM-1: experiment HSMC-1, interleukin-4, about 20 hr; for HSMC-2 % inh. of VCAM-1: experiment HSMC-2, interleukin-4, about 20 hr; for HSMC-3 % inh. of VCAM-1: experiment HSMC-3, interleukin-4, about 20 hr
Procedure: (§1) Cell Surface ELISA for VCAM-1/ICAM-1
(§2) Proliferating human umbilical vein endothelial cells (HUVEC) or human aortic smooth muscle cells (HASMC) from Clonetics (San Diego, Calif.) were plated onto 96-well plates in 100 μL medium per well at 20,000 cells per cm^2. The cultures were maintained in growth medium (EGM or SMGM2, Clonetics, San Diego, Calif.) for two days prior to addition of cytokines or drugs. Cytokines plus or minus compounds were added for 20 to 24 hours prior to analysis for adhesion molecule levels. Tumor necrosis factor (Genzyme, Cambridge, Mass.) was added to cultures at 500-1000 units/mL. Interleukin-4 (GIBCO-BRL, Gaithersburg, Md.) was added to cultures at 100-200 pg/mL. (Additions were made by transferring 100 [μL of cytokines plus compounds serially diluted on a separate 96-well plate into the plates containing cells. The medium on the cultures was not exchanged prior to addition of effectors). The culture medium was removed, and the monolayers were washed twice with Hanks buffered saline solution (HBSS) at room temperature. The primary antibody (anti-human VCAM-1 from Upstate Biotechnology, Inc., Lake Placid, N.Y. or anti-human ICAM-1 from Immunotech, Inc., Westbrook, Me.) was added to each well (1 μg/mL in HBSS plus 5% newborn calf serum, GIBCO-BRL, Gaithersburg, Md.) and incubated at 37° C. for 1 hr. The wells were washed twice with HBSS, then 100 μL of a 1/1000 dilution of goat anti-mouse IgG conjugated to horse radish peroxidase (BioRad, Hercules, Calif.) in HBSS plus 5% newborn calf serum was added to each well and incubated for 1 hr at 37° C. The wells were washed three times with HBSS, then 100 μL of TMB substrate (BioRad, Hercules, Calif.) was added to each well. The reaction was stopped after blue color developed by addition of 50 μL of 1N H2 SO4. Absorbance is measured at 450 nm with a plate reader. IC50 values were determined from curves of absorbance values obtained from serial dilutions of compounds (dissolved in dimethyl sulfoxide).
(§3) The IC50 value is defined as the drug concentration that inhibits the cytokine-induced adhesion molecule expression by 50%. Maximal values for adhesion molecule expression in cytokine-induced cultures was […] the basal level of adhesion molecule expression (minus cytokines) in the cultures to determine the level of induction. […] Each drug concentration was tested in quadruplicate wells. Single point tests of compounds at 50 μM were assayed as described for IC50 determinations, except that the data represent the level of inhibition without correction for basal expression. (Basal adhesion molecule expression was 10-20% of the total induced expression). Table 1 summarizes the ability of various compounds of this invention to inhibit VCAM-1 using human aortic smooth muscle cells (HASMC). In these experiments, the cells were coincubated with interleukin-4 and the compounds listed about 20 hr before assaying cell surface VCAM-1 levels. Each column represents a separate experiment.

VCAM-1 [2] = assay: Cell surface ELISA for VCAM-1 in human umbilical vein endothelial cells (HUVEC), TNF-alpha induced; format: cell-based; conditions: 50 μM, average of three runs
Procedure: as §1, §2, §3
(§4) In these experiments, the cells were coincubated with tumor necrosis factor-alpha along with the indicated compounds about 20 to 24 hr before assaying cell surface adhesion molecule expression.

ICAM-1 = assay: Cell surface ELISA for ICAM-1 in human umbilical vein endothelial cells (HUVEC), TNF-alpha induced; format: cell-based; conditions: 50 μM, average of two runs, numbers in parentheses represent negative values
Procedure: as §1, §2, §3, §4

[3] = test system: oxidation of serum lipids; assay: TBARS assay, serum of cholesterol-fed rabbits; format: in vivo, female New Zealand White rabbits; conditions: Oryctolagus cuniculus, po, 168 h; rabbit serum, diet 0.26%, 7 days; read-out: TBARS, percent of control
Procedure: (§5) Five independent experiments were performed in the following manner. […] Female New Zealand White rabbits (Hazelton, ~2.0-2.3 kg) were fed 0.2% cholesterol enriched rabbit chow (Purina #5322) with or without 0.4% MDL compound (except, MDL 108,804 at 0.26% and MDL 103,491 repeated at 0.6%). The MDL compounds were solubilized in 100% ethanol. MDL 108,208 was not soluble in 100% ethanol, but it was soluble in diethyl ether:ethanol (3:2 by volume). The chow was sprayed with the MDL mixtures and allowed to dry overnight in a chemical fume hood. Control chow was sprayed with ethanol. Rabbits were fed 100 grams food per day for 7 days (0.6% MDL 103,491 were fed for 14 days); water was available ad libitum. On day 7, rabbits (fasted overnight) were bled (~2 mL) from marginal ear vein; 0.6% MDL 103,491 treated rabbits were tested on day 14. They were euthanized by carbon dioxide overdose. The total body and liver weights were recorded in grams. Food consumption was recorded as grams.cndot.day^-1 .cndot.rabbit^-1. Aliquots of fresh serum were used for clinical chemistries, lipoprotein cholesterol determination, thiobarbituric acid reactive substances (TBARS) and compound and metabolite concentrations in serum. Livers (~5 gram aliquots) were frozen at -20° C. for compound and metabolite concentration determination at a later time.
TBARS are a qualitative indication of the oxidation of lipids in a sample. In this assay the oxidation of serum lipids is initiated with CuSO4, resulting in the formation of aldehydes, such as malondialdehyde (MDA). Upon incubation with thiobarbituric acid, the absorbance of the aldehydes can be detected at 530-540 nm. TBARS values which are lower than control serum values indicate the relative ability of a compound to inhibit the oxidation. TBARS were measured as follows: 50 μL of serum were mixed with 50 μL of 0.9% saline and 400 μL of a 5 mM CuSO4 solution and incubated at 37° C. for 5 hr. The reactions were stopped by addition of 1.0 mL of 20% trichloroacetic acid. Then 1.0 mL of 0.67% thiobarbituric acid in 0.05N sodium hydroxide was added, mixed, and the samples incubated for 30 min at 90° C. Samples were centrifuged briefly to pellet undissolved material, and the supernatants were transferred to a 96-well microtiter plate. Absorbances were measured at 540 nm using a Biotek model EL311 microplate reader. The nmoles of MDA produced were calculated from a standard curve of 0 to 10 nmoles of MDA prepared from malonaldehyde bis(dimethylacetal). Serum samples from treated rabbits were compared to serum samples from control rabbits that received no MDL compound.

[4] = HPLC quantitation of compound and metabolite concentration in rabbit serum and liver; format: in vivo, female New Zealand White rabbits; conditions: diet 0.26%, 7 days
Procedure: as §5
Serum and liver concentrations of parent compounds and the metabolites, bisphenol and diphenoquinone, were determined by reverse phase HPLC using a Waters 990 Powerline system. Livers (1 gram) were homogenized with 5.0 mL PBS, pH 7.4, using a Polytron tissue homogenizer at setting 5 for 20-30 seconds. Serum or liver homogenates were extracted as follows: 100 μL of either serum or homogenate were added to 2.0 mL diethyl ether:ethanol (3:1) while vortexing the tube. The sample tubes were capped and centrifuged for 10 min at 5° C. at 3500 rpm in a Beckman GPKR centrifuge with a GH 3.7 rotor. The supernatants were transferred to clean tubes and dried under N2. Samples were reconstituted with 200 μL of acetonitrile:hexane:0.1M ammonium acetate (90:6.5:3.5, by vol.). Then, 100 μL were injected onto a Waters Deltapak C18-300 Å column, and eluted with an 83% acetonitrile:17% water mobile phase at a flow rate of 1.5 mL/min. Absrobances at the wavelengths of 240, 254, and 420 nm were recorded. Compound concentrations were calculated from known quantities of authentic parent compounds after correction for recovery; the range of recovery from spiked samples was 40 to 100%. The lowest detectable limit for this class of compounds was ~0.5 μg/mL. Concentrations were calculated as μg/mL of serum and μg/g of liver.

[5] = test system: serum cholesterol, LDL, HDL, triglycerides; assay: Serum lipids and lipoprotein cholesterol in cholesterol-fed female New Zealand White rabbits; format: in vivo; conditions: Oryctolagus cuniculus, po, 168 h, rabbit serum, diet 0.26%, 7 days
Procedure: as §5
Blood was allowed to clot at room temperature for 30 minutes. Serum was obtained after centrifugation for 10 min at 5° C. at 3000 rpm in a Beckman GPKR centrifuge with a GH rotor. Fresh serum was analyzed by a COBAS MIRA autoanalyzer (Roche Diagnostics) using Roche diagnostic reagents for total cholesterol (CHOL, kit #44334) and triglyceride (TG, kit #44120). Cholesterol and triglycerides were calculated as mg/dL.
Lipoprotein fractions (very low density lipoprotein, VLDL, low density lipoprotein, LDL and high density lipoprotein, HDL) were separated on a Sepharose 6HR column (1×30 cm, Pharmacia) attached to a Waters Powerline HPLC system. Fifty μL of serum were injected onto the column and eluted with phosphate buffered saline, pH 7.4, at a flow rate of 0.5 mL/min. Cholesterol reagent (Roche Diagnostics, kit #44334, diluted with 20 mL water and then with 20 mL of 0.9% saline) was added at 0.2 mL/min to the post column eluant and incubated in a knitted PFTE Kratos reaction coil (Applied Biosystems) at 37° C. for 5 min. Absorbance was measured at 500 nm. The lipoprotein subfractions were quantitated as follows: [formula]

[6] = Food consumption, body and liver weight in cholesterol-fed rabbits; format: in vivo, female New Zealand White rabbits; conditions: diet 0.26%, 7 days
Procedure: as §5

For Cc1cc(O)c(C)c(C)c1OC[Si](C)(C)c1ccccc1 [MDL 103,653, 2,3,5-Trimethyl-4-[(dimethylphenylsilyl)methyloxy]phenol], the “VCAM-1 (Avg.) % inh.” value (VCAM-1 [1]) was 56.4%, the “HSMC-1 % inh. of VCAM-1” value (VCAM-1 [1]) was 63.1% and the “HSMC-2 % inh. of VCAM-1” value (VCAM-1 [1]) was 54.0%. The “HSMC-3 % inh. of VCAM-1” value (VCAM-1 [1]) was 52.0%, the VCAM-1 % inh. (VCAM-1 [2]) was 37.7% and the ICAM-1 % inh. (ICAM-1) was 78.5%.
For CC(C)(C)c1cc(SC[Si](C)(C)C)cc(C(C)(C)C)c1OC(=O)CCC(=O)O [MDL 104,863, 2,6-Di-t-butyl-4-[(trimethylsilyl)methylthio]phenol succinic acid ester], the “VCAM-1 (Avg.) % inh.” value (VCAM-1 [1]) was 54.8%, the “HSMC-1 % inh. of VCAM-1” value (VCAM-1 [1]) was 56.5% and the “HSMC-2 % inh. of VCAM-1” value (VCAM-1 [1]) was 52.0%. The “HSMC-3 % inh. of VCAM-1” value (VCAM-1 [1]) was 56.0%, the VCAM-1 % inh. (VCAM-1 [2]) was 44.3% and the ICAM-1 % inh. (ICAM-1) was 53%.
In the case of CC(C)(C)c1cc(OC[Si](C)(C)Cc2ccccc2)ccc1O [MDL 108,804, 2-t-butyl-4-[(dimethylbenzylsilyl)methyloxy]phenol], the response vs control in vivo at 0.26 % [3] is reported as 49%, the “Liver Parent = parent compound concentration” value ([4]; rabbit liver) is reported as 0 µg/g and the “Serum Parent = parent compound concentration” value ([4]; rabbit serum) is reported as 0 µg/mL. For the same compound, the response vs control in vivo at 0.26 % ([5]; read-out: HDL cholesterol, percent of control) was 109%, the response vs control in vivo at 0.26 % ([5]; read-out: LDL cholesterol, percent of control) was 82% and the response vs control in vivo at 0.26 % ([5]; read-out: TRIG (triglycerides), percent of control) was 143%. The response vs control in vivo at 0.26 % ([5]; read-out: chol tot. (total cholesterol), percent of control) was 91%, the “food (grams eaten per day per rabbit), percent of control” value [6] was 100% and the “body wt., percent of control” value ([6]; rabbit) was 101%. For the same compound, the “lw/bw (liver weight/body weight), percent of control” value ([6]; rabbit) was 96%.
